The term melting point denotes the temperature of the solid-liquid transition.

SMILES strings stand for the structures.

`COc1cc2ncnc(N3CCN(C(=S)Nc4ccc(C#N)cc4)CC3)c2cc1OC` [Compound 85, N-(4-Cyanophenyl)-4-(6,7-dimethoxy-4-quinazolinyl)-1-piperazinethiocarboxamide] returned a melting point of 247 to 252 °C. The same measure for `CCOc1cc2ncnc(N3CCN(C(=O)Nc4ccc(Oc5ccccc5)cc4)CC3)c2cc1OCC` [Compound 106, 4-(6,7-Diethoxy-4-quinazolinyl)-N-(4-phenoxyphenyl)-1-piperazinecarboxamide]: 187 to 190 °C; for `COc1cc2ncnc(N3CCN(C(=S)Nc4cccc(C(C)C)c4)CC3)c2cc1OC` [Compound 151, 4-(6,7-Dimethoxy-4-quinazolinyl)-N-(3-isopropylphenyl)-1-piperazinethiocarboxamide]: 169 to 171 °C; for `COc1cc2ncnc(N3CCN(C(=S)Nc4cccc(Cl)c4)CC3)c2cc1OC` [Compound 175, N-(3-Chlorophenyl)-4-(6,7-dimethoxy-4-quinazolinyl)-1-piperazinethiocarboxamide]: 222 to 224 °C. Consider `O=C(Nc1ccc(Oc2ccccc2)cc1)N1CCN(c2ncnc3ccc(Cl)cc23)CC1` [Compound 301, 4-(6-Chloro-4-quinazolinyl)-N-(4-phenoxyphenyl)-1-piperazinecarboxamide], for which the melting point lay within 116 to 120 °C.

Turning to `COc1cc2ncnc(N3CCN(C(=O)Nc4cccc(C#N)c4)CC3)c2cc1OC` [Compound 84, N-(3-Cyanophenyl)-4-(6,7-dimethoxy-4-quinazolinyl)-1-piperazinecarboxamide], the melting point lay in the range of 240 to 244 °C. To `COc1cc2ncnc(N3CCN(C(=O)Nc4ccccc4[N+](=O)[O-])CC3)c2cc1OC` [Compound 75, 4-(6,7-Dimethoxy-4-quinazolinyl)-N-(2-nitrophenyl)-1-piperazinecarboxamide] belongs 217 to 218 °C; to `COc1cc2ncnc(N3CCN(C(=O)Nc4ccc(CNCc5ccncc5)cc4)CC3)c2cc1OC.Cl.Cl.Cl`, 182 to 185 °C; to `COc1cc2ncnc(N3CCN(C(=O)NCc4ccc(F)cc4)CC3)c2cc1OC` [Compound 172, 4-(6,7-Dimethoxy-4-quinazolinyl)-N-(4-fluorobenzyl)-1-piperazinecarboxamide], 200 to 201 °C. The same measure for `COc1cc2ncnc(N3CCN(C(=S)NCc4ccc(C)cc4)CC3)c2cc1OC` [Compound 147, 4-(6,7-Dimethoxy-4-quinazolinyl)-N-(4-methylbenzyl)-1-piperazinethiocarboxamide]: 202 to 204 °C; for `COc1cc2ncnc(N3CCN(C(=S)Nc4ccc(C(=O)c5ccccc5)cc4)CC3)c2cc1OC` [Compound 88, N-(4-Benzoylphenyl)-4-(6,7-dimethoxy-4-quinazolinyl)-1-piperazinethiocarboxamide]: 222 to 223 °C. To `COc1cc2ccnc(N3CCN(C(=O)Nc4ccc([N+](=O)[O-])cc4)CC3)c2cc1OC` [Compound 113, 4-(6,7-Dimethoxy-1-isoquinolyl)-N-(4-nitrophenyl)-1-piperazinecarboxamide] belongs 247 to 248 °C. For the compound `O=C(Nc1ccc(Oc2ccccc2)cc1)N1CCN(c2nnc(Cl)c3ccccc23)CC1` [Compound 416, 4-(4-Chloro-1-phthalazinyl)-N-(4-Phenoxyphenyl)-1-piperazinecarboxamide], the melting point was in the range of 196 to 197 °C. To `COc1cc2ncnc(N3CCN(C(=O)Nc4ccc(C(C)(C)C)cc4)CC3)c2cc1OC` [Compound 156, N-(4-tert-Butylphenyl)-4-(6,7-dimethoxy-4-quinazolinyl)-1-piperazinecarboxamide] belongs 109 to 111 °C. To `COc1cc2ncnc(N3CCN(C(=S)Nc4ccccc4)CC3)c2cc1OC` [Compound 2, 4-(6,7-Dimethoxy-4-quinazolinyl)-N-phenyl-1-piperazinethiocarboxamide] belongs 230 to 232 °C; to `CC(=O)c1ccc(NC(=O)N2CCN(c3ncnc4ccc(Cl)cc34)CC2)cc1` [Compound 302, N-(4-Acetylphenyl)-4-(6-chloro-4-quinazolinyl)-1-piperazinecarboxamide], 207 to 208 °C. To `COc1cc2ncnc(N3CCN(C(=O)Nc4ccc(S(C)(=O)=O)cc4)CC3)c2cc1OC` [Compound 251, 4-(6,7-Dimethoxy-4-quinazolinyl)-N-(4-mesylphenyl)-1-piperazinecarboxamide] belongs 266 to 269 °C. `COc1ccc(CNC(=O)N2CCN(c3ncnc4cc(OC)c(OC)cc34)CC2)cc1` [Compound 198, 4-(6,7-Dimethoxy-4-quinazolinyl)-N-(4-methoxybenzyl)-1-piperazinecarboxamide] displayed a melting point of 147 to 148 °C. To `COc1cc2ncnc(N3CCN(C(=O)Nc4ccc(Cl)cc4[N+](=O)[O-])CC3)c2cc1OC` [Compound 234, N-(4-Chloro-2-nitrophenyl)-4-(6,7-dimethoxy-4-quinazolinyl)-1-piperazinecarboxamide] belongs 205 to 206 °C; to `COc1cc2ncnc(N3CCN(C(=O)Nc4ccc(C#N)nc4)CC3)c2cc1OC` [Compound 273, N-(2-Cyano-5-pyridyl)-4-(6,7-dimethoxy-4-quinazolinyl)-1-piperazinecarboxamide], 275 to 277 °C.

In turn, `COc1cc2ncnc(N3CCN(C(=O)Nc4cccc(Br)c4)CC3)c2cc1OC` [Compound 44, N-(3-Bromophenyl)-4-(6,7-dimethoxy-4-quinazolinyl)-1-piperazinecarboxamide] displayed a melting point of 221 to 222 °C. The same measure for `COc1cc2ncnc(N3CCN(C(=S)Nc4ccc(C(C)C)cc4)CC3)c2cc1OC` [Compound 152, 4-(6,7-Dimethoxy-4-quinazolinyl)-N-(4-isopropylphenyl)-1-piperazinethiocarboxamide]: 194 to 195 °C. To `COc1cc2nc(Cl)nc(N3CCN(C(=O)Nc4ccc(Oc5ccccc5)cc4)CC3)c2cc1OC` [Compound 392, 4-(2-Chloro-6,7-dimethoxy-4-quinazolinyl)-N-(4-phenoxyphenyl)-1-piperazinecarboxamide] belongs 178 to 179 °C; to `COc1cc2ncnc(N3CCN(C(=O)Nc4ccc([N+](=O)[O-])c([N+](=O)[O-])c4)CC3)c2cc1OC`, 273 to 274 °C. The same measure for `COc1cc2ncnc(N3CCN(C(=O)Nc4ccc(OC(C)C)cc4)CC3)c2cc1OC` [Compound 202, 4-(6,7-Dimethoxy-4-quinazolinyl)-N-(4-isopropoxyphenyl)-1-piperazinecarboxamide]: 220 to 222 °C. In turn, `COc1cc2ncnc(N3CCCN(C(=O)Nc4ccc(Oc5ccccc5)cc4)CC3)c2cc1OC` [Compound 435, 4-(6,7-Dimethoxy-4-quinazolinyl)-N-(4-phenoxyphenyl)-1-homopiperazinecarboxamide] returned a melting point of 93 to 96 °C. To `COc1ccc2c(N3CCN(C(=S)NCc4ccccc4)CC3)ncnc2c1OC` [Compound 384, N-Benzyl-4-(7,8-dimethoxy-4-quinazolinyl)-1-piperazinethiocarboxamide] belongs 158 to 160 °C; to `COc1cc(OC)c2ncnc(N3CCN(C(=O)Nc4ccc(Oc5ccccc5)cc4)CC3)c2c1` [Compound 381, 4-(6,8-Dimethoxy-4-quinazolinyl)-N-(4-phenoxyphenyl)-1-piperazinecarboxamide], 109 to 110 °C. To `COc1ccc2c(N3CCN(C(=O)Nc4ccc(Oc5ccccc5)cc4)CC3)ncnc2c1OC` [Compound 383, 4-(7,8-Dimethoxy-4-quinazolinyl)-N-(4-phenoxyphenyl)-1-piperazinecarboxamide] belongs 189 to 190 °C; to `COc1cc2ncnc(N3CCN(C(=O)NCc4ccco4)CC3)c2cc1OC` [Compound 256, 4-(6,7-Dimethoxy-4-quinazolinyl)-N-furfuryl-1-piperazinecarboxamide], 168 to 170 °C; to `S=C(NCc1cccnc1)N1CCN(c2ncnc3cc4c(cc23)OCO4)CC1` [Compound 371, 4-(6,7-Methylenedioxy-4-quinazolinyl)-N-(3-picolyl)-1-piperazinethiocarboxamide], 167 to 168 °C.

On to `Cc1ccc2ncnc(N3CCN(C(=S)NCc4cccnc4)CC3)c2c1` [Compound 295, 4-(6-Methyl-4-quinazolinyl)-N-(3-picolyl)-1-piperazinethiocarboxamide], for which the melting point fell in the range of 128 to 129 °C. `COc1cc2ncnc(N3CCN(C(=S)NCC4(c5ccc(Cl)cc5)CC4)CC3)c2cc1OC` [Compound 446, N-[1-(4-Chlorophenyl)cyclopropylmethyl]-4-(6,7-dimethoxy-4-quinazolinyl)-1-piperazinethiocarboxamide] displayed a melting point of 108 to 111 °C. The same measure for `COc1ccc2ncnc(N3CCN(C(=S)NCc4ccccc4)CC3)c2c1` [Compound 309, N-Benzyl-4-(6-methoxy-4-quinazolinyl)-1-piperazinethiocarboxamide]: 68 to 70 °C. To `C=Cc1ccc(NC(=S)N2CCN(c3ncnc4cc(OC)c(OC)cc34)CC2)cc1` [Compound 24, 4-(6,7-Dimethoxy-4-quinazolinyl)-N-(4-vinylphenyl)-1-piperazinethiocarboxamide] belongs 110 to 111 °C; to `COc1cc2ncnc(N3CCCN(C(=S)NCc4cccnc4)CC3)c2cc1OC.Cl.Cl`, 177 to 183 °C; to `FC(F)(F)c1ccc2nccc(N3CCN(C(=S)NCc4ccccc4)CC3)c2c1` [Compound 398, N-Benzyl-4-(6-trifluoromethyl-4-quinolyl)-1-piperazinethiocarboxamide], 158 to 159 °C. To `COc1cc2ncnc(N3CCN(C(=O)Nc4cc(C(F)(F)F)cc(C(F)(F)F)c4)CC3)c2cc1OC` [Compound 32, N-[3,5-Bis(trifluoromethyl)phenyl]-4-(6,7-dimethoxy-4-quinazolinyl)-1-piperazinecarboxamide] belongs 251 to 252 °C; to `COc1cc2ncnc(N3CCN(C(=O)NS(=O)(=O)c4ccc(Cl)cc4)CC3)c2cc1OC` [Compound 43, N-(4-Chlorobenzenesulfonyl)-4-(6,7-dimethoxy-4quinazolinyl)-1-piperazinecarboxamide], 228 to 234 °C.

(Values after patent US6472391B2, “Nitrogen-containing heterocyclic compounds” (Millennium Pharmaceuticals, Inc., priority 1996, dated 2002).)
